According to patent US20030087942A1, “Method for the treatment and prevention of cachexia” (Washington University, priority 2001, published 2003):

Experiments:
[1] = LPS-induced weight loss; type: in vivo, mice (C3H/HeN)
Protocol: (§1) Animal housing. […] For pharmacological inhibitor studies, male C3H/HeN mice (Harlan Sprague Dawley, Inc., Indianapolis, Ind.) 10-12 wks of age were evaluated according to the method of Gross et al., Am J Physiol 278: R1415-23, 2000. See also Silver et al., J Clin Invest 95: 725-31, 1995. […] Control mice designated “WT” for the COX KO experiments were WT and heterozygous littermates arising from the COX-2 heterozygous matings. All mouse protocols were in accordance with NIH guidelines and approved by the Animal Care and Use Committee of Washington University School of Medicine.

[2] = tested on: IL-6; experiment: Plasma IL-6 after LPS (ELISA); type: in vivo, mice (C3H/HeN)
Source text: (§2) Serum corticosterone, leptin, and IL-6 measurements.

[3] = tested on: CRH mRNA; experiment: Hypothalamic in situ mRNA hybridization, CRH; type: in vivo, mice (C3H/HeN); conditions: Compound 1/LPS group; 16 h after LPS with food withdrawal
Protocol: Hypothalamic in situ mRNA hybridization. […] After 24 h immersion in 4% paraformaldehyde, hypothalami were cryoprotected in 10% sucrose in DEPC D-PBS. Samples were embedded in OCT (Sakura Finetek USA, Inc., Torrance, Calif.), cut into 10 micron sections on a cryostat, and thaw mounted onto Superfrost plus slides (Fisher Scientific, Pittsburgh, Pa.). In situ hybridization utilized α-^33P-UTP-labelled 320 base anti-sense riboprobe from the mouse CRH gene or a 511 base anti-sense riboprobe from the rat neuropeptide Y (NPY) cDNA (generously provided by Dr. Steven Sabol, NHLBI, NIH) by methods described (e.g., Muglia et al., J Neurosci 19: 2051-8, 1999). For CRH and NPY mRNA detection, the regions of the hypothalamic paraventicular and arcuate nuclei were determined by Nissl staining and light microscopy. Six sections spanning each nucleus were hybridized to CRH (paraventricular nucleus) or NPY (arcuate nucleus) probes, and the two sections of peak intensity imaged for densitometric analysis. Hybridizing probes were quantitated by exposure of slides to Hyperfilm-βMax (Amersham Life Science, Inc., Arlington Heights, Ill.) with densitometric analysis employing NIH Image Software.

[4] = tested on: leptin; experiment: Plasma leptin after LPS (ELISA); type: in vivo, mice (C3H/HeN); conditions: after LPS (3 h and 16 h)
Source text: as §2

[5] = 24 h period following LPS
Protocol: LPS-induced anorexia. C3H/HeN male mice were singly housed and acclimatized for at least 2 days to cages with grid bottoms prior to treatments. Body weight and food intake was measured daily until a stable baseline was obtained. Mice received either vehicle (phosphate buffered saline; PBS) or 100 μg of lipopolysaccharide (Escherichia coli 0111 :B4, Sigma, St. Louis, Mo.) in PBS via shallow midline, mid-abdominal, intraperitoneal injection. […] To determine the effect of COX inhibition, mice were pretreated with either vehicle (phosphate buffered saline plus 1% Tween 80), or vehicle plus agent 30 minutes prior to i.p. injection of LPS or vehicle, and re-dosed at 8 and 24 hrs after LPS. Cyclooxygenase inhibitors were administered via gavage using olive-tipped needles.

[6] = mouse, in vivo, 10 mg/kg
Protocol: as §1

## NS(=O)(=O)c1ccc(-n2nc(C(F)(F)F)cc2-c2ccc(Cl)cc2)cc1 [Compound 1]
[1]; 2 and 3 days after LPS treatment
  difference in weight loss between LPS-treated Compound 1 and Compound 2 groups: remained significant
[2]; 3 h after LPS
  magnitude of early induction of plasma IL-6 vs. LPS alone: no change
[2]; 16 hours after LPS
  sustained increases in plasma IL-6 vs. LPS alone: no change
[3]
  elevation of CRH mRNA in the paraventricular nucleus of the hypothalamus: approximately 3 fold
[4]
  magnitude of induction of leptin, vehicle/LPS vs. Compound 1/LPS: did not differ
[5]
  hypophagic response after LPS: attenuated, but did not completely block the hypophagic response

## COc1ccc(-n2nc(C(F)(F)F)cc2-c2ccc(Cl)cc2)cc1 [Compound 2]
[1]; 3 days after treatment, 300 μg/dose (10 mg/kg) gavage plus LPS
  body weight in comparison to the vehicle/LPS group: sustained weight reduction

## COc1ccc2c(c1)c(CC(=O)O)c(C)n2C(=O)c1ccc(Cl)cc1 [indomethacin]
[6]
  change in body weight relative to vehicle-treated control mice: no change in body weight
[1]; 100 μg LPS i.p., gavage 30 min before, 8 and 24 h after LPS, indomethacin 150 μg/dose, Compound 1 300 μg/dose
  weight loss associated with LPS administration, vs. vehicle/LPS: tended to reduce the weight loss
